The values that follow come from patent US12655120B2, “GPR52 modulator compounds” (NXERA PHARMA UK LIMITED, priority 2020, dated 2026).

The term Emax denotes the maximal effect, on the per cent scale that the assay sets.

This assay concerns the target T1, human GPR52 (Homo sapiens, UniProt Q9Y2T5).
T1 construct: expressed in transfected cells; host or cells: HEKf suspension cells infected with BacMam virus
Kind of assay: GPR52 Agonist Functional cAMP Assay. Type of assay: cell-based. The conditions noted are these: for Emax: normalised to DMSO (0%) and maximal compound 7m (J. Med. Chem., 2014, 57, 5226) response (100%); for EC50: HEKf cells infected with human GPR52 BacMam, HTRF cAMP, 30 min at 37° C., read-out: pEC50 average (converted). The method, then: HEKf suspension cells were infected for 24 h with 0.1% v/v human GPR52 expressing BacMam virus, a modified baculovirus designed for mammalian gene expression. Following BacMam infection, cells were pelleted by centrifugation (335 g, 5 min), resuspended in cell freezing medium (Sigma) and frozen at −150° C. until required. On experiment day, 25 nL GPR52 compound dilutions, prepared in DMSO, were stamped onto proxiplates (PerkinElmer) by a LabCyte ECHO acoustic dispenser. Frozen cells were thawed and resuspended in assay stimulation buffer (Cisbio) containing 0.5 mM 3-iso-butyl-1-methylxanthine (IBMX, Sigma) to achieve a density of 2000 cells per well. 10 μl cells were added to assay plates using a Multidrop Combi Reagent Dispenser (ThermoFisher) before centrifugation (335 g, 1 min). Cells were incubated with compounds at 37° C. for 30 min prior to addition of cAMP detection reagents (HiRange cAMP kit, Cisbio) which were prepared according to the manufacturer's instructions. Plates were shaken for 1 h at room temperature before reading on a PHERAstar FS plate reader (BMG Labtech) using standard HTRF settings. HTRF ratios were obtained by dividing the acceptor emissions (665 nm) by the donor emissions (620 nm) and multiplying by 10,000.
For orientation: Time-resolved FRET reads energy transfer from a long-lived donor to a nearby acceptor.

T1 sequence (Q9Y2T5 whole entry): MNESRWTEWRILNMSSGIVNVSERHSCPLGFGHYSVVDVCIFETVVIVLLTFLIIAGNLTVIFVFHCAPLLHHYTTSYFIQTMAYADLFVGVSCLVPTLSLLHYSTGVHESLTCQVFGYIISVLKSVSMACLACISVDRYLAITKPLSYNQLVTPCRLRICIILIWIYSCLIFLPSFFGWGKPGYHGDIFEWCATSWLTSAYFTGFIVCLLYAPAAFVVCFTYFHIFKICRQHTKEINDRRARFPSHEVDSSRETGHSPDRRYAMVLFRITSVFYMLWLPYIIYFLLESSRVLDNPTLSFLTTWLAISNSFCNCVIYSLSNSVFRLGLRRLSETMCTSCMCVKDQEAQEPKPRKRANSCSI

`Cc1nn(-c2ccnc(Cc3cc(F)cc(C(F)(F)F)c3)c2)c(CO)c1C(N)=O` [Example 41, 1-(2-(3-fluoro-5-(trifluoromethyl)benzyl)pyridin-4-yl)-5-(hydroxymethyl)-3-methyl-1H-pyrazole-4-carboxamide] displayed an Emax of 98%.
As for `Cc1nn(-c2ccnc(Cc3cc(F)cc(C(F)(F)F)c3)c2)cc1C(=O)N(C)C` [Example 18, 1-(2-(3-fluoro-5-(trifluoromethyl)benzyl)pyridin-4-yl)-N,N,3-trimethyl-1H-pyrazole-4-carboxamide], the EC50 is 79.4 nM and the Emax was 92%.
Regarding `Cc1nn(-c2cc(Cc3cc(F)cc(C(F)(F)F)c3)ccn2)cc1C(N)=O` [Example 5, 1-(4-(3-fluoro-5-(trifluoromethyl)benzyl)pyridin-2-yl)-3-methyl-1H-pyrazole-4-carboxamide], the EC50 was 15.8 nM and the Emax worked out at 94%.
Turning to `Cc1nn(-c2ccnc(C(O)c3cc(F)cc(C(F)(F)F)c3)c2)cc1C(N)=O` (stereo not shown) [Example 59, 1-(2-((3-fluoro-5-(trifluoromethyl)phenyl)(hydroxy)methyl)pyridin-4-yl)-3-methyl-1H-pyrazole-4-carboxamide], the EC50 was 200 nM and the maximal effect (Emax) was 79%.
For `NC(=O)c1ccn(-c2cc(Cc3cc(F)cc(C(F)F)c3)ccn2)n1` [Example 38, 1-(4-(3-(difluoromethyl)-5-fluorobenzyl)pyridin-2-yl)-1H-pyrazole-3-carboxamide] the same measures were 20 nM and 93%.
As to `Cc1cc(C(N)=O)nn1-c1cc(Cc2cc(F)cc(C(F)(F)F)c2)ccn1` [Example 30, 1-(4-(3-fluoro-5-(trifluoromethyl)benzyl)pyridin-2-yl)-5-methyl-1H-pyrazole-3-carboxamide], the EC50 was 158 nM and the Emax was determined as 93%.
For `Cc1nn(-c2cc(Cc3cc(F)cc(C(F)(F)F)c3)ccn2)c(C)c1C(N)=O` [Example 6, 1-(4-(3-fluoro-5-(trifluoromethyl)benzyl)pyridin-2-yl)-3,5-dimethyl-1H-pyrazole-4-carboxamide] the same measures were 12.6 nM and 97%.
On to `O=C(NCCO)c1ccn(-c2cc(Cc3cc(F)cc(C(F)(F)F)c3)ccn2)n1` [Example 35, 1-(4-(3-fluoro-5-(trifluoromethyl)benzyl)pyridin-2-yl)-N-(2-hydroxyethyl)-1H-pyrazole-3-carboxamide], for which the EC50 was 398 nM and the Emax is 83%.
In the same order, the values of `CNC(=O)c1nn(-c2cc(Cc3cc(F)cc(C(F)(F)F)c3)ccn2)nc1C` [Example 58, 2-(4-(3-fluoro-5-(trifluoromethyl)benzyl)pyridin-2-yl)-N,5-dimethyl-2H-1,2,3-triazole-4-carboxamide] are 15.8 nM and 92%.
With `CNC(=O)c1cn(-c2cccc(Cc3cc(F)cc(C(F)(F)F)c3)n2)nc1CO` [Example 48, 1-(6-(3-fluoro-5-(trifluoromethyl)benzyl)pyridin-2-yl)-3-(hydroxymethyl)-N-methyl-1H-pyrazole-4-carboxamide], the EC50 was 1580 nM and the Emax is 36%.
Take `CNC(=O)c1cn(-c2cc(Cc3cc(F)cc(C(F)F)c3)ccn2)nc1C` [Example 45, 1-(4-(3-(difluoromethyl)-5-fluorobenzyl)pyridin-2-yl)-N,3-dimethyl-1H-pyrazole-4-carboxamide]: the EC50 was 200 nM and the Emax is 91%.
Turning to `Cc1nn(-c2ccnc(Cc3cc(F)cc(C(F)(F)F)c3)c2)cc1C(=O)NC1COC1` [Example 19, 1-(2-(3-fluoro-5-(trifluoromethyl)benzyl)pyridin-4-yl)-3-methyl-N-(oxetan-3-yl)-1H-pyrazole-4-carboxamide], the EC50 is 15.8 nM and the Emax was found to be 99%.
In the same order, the values of `NC(=O)c1cnn(-c2cc(Cc3cc(F)cc(C(F)(F)F)c3)ccn2)c1` [Example 1, 1-(4-(3-fluoro-5-(trifluoromethyl)benzyl)pyridin-2-yl)-1H-pyrazole-4-carboxamide] are 126 nM and 90%.
On to `Cc1nn(-c2cc(Cc3cc(F)cc(C(F)F)c3)ccn2)cc1C(N)=O` [Example 37, 1-(4-(3-(difluoromethyl)-5-fluorobenzyl)pyridin-2-yl)-3-methyl-1H-pyrazole-4-carboxamide], for which the EC50 was 79.4 nM and the Emax came out at 96%.
For the compound `O=C(NC1COC1)c1ccn(-c2cc(Cc3cc(F)cc(C(F)(F)F)c3)ccn2)n1` [Example 34, 1-(4-(3-fluoro-5-(trifluoromethyl)benzyl)pyridin-2-yl)-N-(oxetan-3-yl)-1H-pyrazole-3-carboxamide], the EC50 is 631 nM and the Emax is 77%.
Regarding `Cc1nn(-c2ccnc(Cc3cc(F)cc(C(F)(F)F)c3)c2)cc1C(=O)N1CCCC1` [Example 16, (1-(2-(3-fluoro-5-(trifluoromethyl)benzyl)pyridin-4-yl)-3-methyl-1H-pyrazol-4-yl)(pyrrolidin-1-yl)methanone], the EC50 is 31.6 nM and the Emax turned out to be 93%.
As for `Cc1cnc(Cc2cc(F)cc(C(F)(F)F)c2)cc1-n1cc(C(N)=O)c(C)n1` [Example 52, 1-(2-(3-fluoro-5-(trifluoromethyl)benzyl)-5-methylpyridin-4-yl)-3-methyl-1H-pyrazole-4-carboxamide], the EC50 was 100 nM and the Emax was 100%.
`Cc1nn(-c2ccnc(Cc3cc(F)cc(C(F)(F)F)c3)c2)c(CO)c1C(=O)NCCO` [Example 42, 1-(2-(3-fluoro-5-(trifluoromethyl)benzyl)pyridin-4-yl)-N-(2-hydroxyethyl)-5-(hydroxymethyl)-3-methyl-1H-pyrazole-4-carboxamide] displayed an Emax of 100%.
As to `CNC(=O)c1c(C)nn(-c2cc(Cc3cc(F)cc(C(F)(F)F)c3)ccn2)c1CO` [Example 43, 1-(4-(3-fluoro-5-(trifluoromethyl)benzyl)pyridin-2-yl)-5-(hydroxymethyl)-N,3-dimethyl-1H-pyrazole-4-carboxamide], the Emax is 101%.
`NC(=O)c1cn(-c2ccnc(Cc3cc(F)cc(C(F)(F)F)c3)c2)nc1C(F)(F)F` [Example 24, 1-(2-(3-fluoro-5-(trifluoromethyl)benzyl)pyridin-4-yl)-3-(trifluoromethyl)-1H-pyrazole-4-carboxamide]: the EC50 was 25.1 nM and the Emax is 91%.
`Cc1cn(-c2cc(Cc3cc(F)cc(C(F)(F)F)c3)ccn2)nc1C(N)=O` [Example 10, 1-(4-(3-fluoro-5-(trifluoromethyl)benzyl)pyridin-2-yl)-4-methyl-1H-pyrazole-3-carboxamide]: the EC50 is 79.4 nM and the Emax was determined as 83%.
In the same order, the values of `O=C(c1ccn(-c2cc(Cc3cc(F)cc(C(F)(F)F)c3)ccn2)n1)N1CCCC1` [Example 33, (1-(4-(3-fluoro-5-(trifluoromethyl)benzyl)pyridin-2-yl)-1H-pyrazol-3-yl)(pyrrolidin-1-yl)methanone] are 126 nM and 87%.
`CNC(=O)c1cnn(-c2cc(Cc3cc(F)cc(C(F)(F)F)c3)ccn2)n1` [Example 56, 2-(4-(3-fluoro-5-(trifluoromethyl)benzyl)pyridin-2-yl)-N-methyl-2H-1,2,3-triazole-4-carboxamide]: the EC50 is 100 nM and the Emax is 84%.
As for `COc1nn(-c2cc(Cc3cc(F)cc(C(F)(F)F)c3)ccn2)cc1C(N)=O` [Example 14, 1-(4-(3-fluoro-5-(trifluoromethyl)benzyl)pyridin-2-yl)-3-methoxy-1H-pyrazole-4-carboxamide], the EC50 is 31.6 nM and the Emax came to 95%.
Consider `Cc1c(C(N)=O)cnn1-c1cc(Cc2cc(F)cc(C(F)(F)F)c2)ccn1` [Example 7, 1-(4-(3-fluoro-5-(trifluoromethyl)benzyl)pyridin-2-yl)-5-methyl-1H-pyrazole-4-carboxamide], for which the EC50 was 126 nM and the Emax is 93%.
As to `CNC(=O)c1cnn(-c2cc(Cc3cc(F)cc(C(F)(F)F)c3)ccn2)c1` [Example 3, 1-(4-(3-fluoro-5-(trifluoromethyl)benzyl)pyridin-2-yl)-N-methyl-1H-pyrazole-4-carboxamide], the EC50 was 316 nM and the maximal response (Emax) was 86%.
Consider `CNC(=O)c1ccn(-c2cc(Cc3cc(F)cc(C(F)(F)F)c3)ccn2)n1` [Example 31, 1-(4-(3-fluoro-5-(trifluoromethyl)benzyl)pyridin-2-yl)-N-methyl-1H-pyrazole-3-carboxamide], for which the EC50 is 20 nM and the Emax was 87%.
In the same order, the values of `NC(=O)c1cn(-c2ccnc(Cc3cc(F)cc(C(F)(F)F)c3)c2)nc1Cl` [Example 22, 3-chloro-1-(2-(3-fluoro-5-(trifluoromethyl)benzyl)pyridin-4-yl)-1H-pyrazole-4-carboxamide] are 15.8 nM and 96%.
On to `NC(=O)c1cn(-c2ccnc(Cc3cc(F)cc(C(F)(F)F)c3)c2)nc1C(F)F` [Example 23, 3-(difluoromethyl)-1-(2-(3-fluoro-5-(trifluoromethyl)benzyl)pyridin-4-yl)-1H-pyrazole-4-carboxamide], for which the EC50 was 25.1 nM and the Emax was determined as 87%.
